The supplement of paper PMC10307832

Tests used:
Experiment in all cases: relative viability (nuclei count vs DMSO), 5 days (fraction); higher = more cells survive
NCI-H1793 = tested on: NCI-H1793
In short: (§1)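 After 5 days of treatment, lung cancer cells in 1536-well plates were fixed and stained in a single step (final 0.05% Triton X-100, 1% formaldehyde, 1 ug/ml Hoechst) and their nuclei counted on 4× images. Treatment had been applied by pin tool the day after seeding as one drug alone or as a fixed anchor-drug dose with five library-drug doses (not always all listed) in √10 steps. Relative viability is the nuclei count of treated wells divided by that of vehicle wells, and values are medians of duplicate plates.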

BEN = tested on: BEN
In short: as §1

NCI-H1792 = tested on: NCI-H1792
In short: as §1

NCI-H727 = tested on: NCI-H727
In short: as §1

HCC-827 = tested on: HCC-827
In short: as §1

LCLC-97TM1 = tested on: LCLC-97TM1
In short: as §1

NCI-H1650 = tested on: NCI-H1650
In short: as §1

NCI-H322M = tested on: NCI-H322M
In short: as §1

RERF-LC-KJ = tested on: RERF-LC-KJ
In short: as §1

NCI-H2228 = tested on: NCI-H2228
In short: as §1

LCLC-103H = tested on: LCLC-103H
In short: as §1

NCI-H2405 = tested on: NCI-H2405
In short: as §1

NCI-H1944 = tested on: NCI-H1944
In short: as §1

NCI-H647 = tested on: NCI-H647
In short: as §1

LXF-289 = tested on: LXF-289
In short: as §1

SK-LU-1 = tested on: SK-LU-1
In short: as §1

NCI-H1395 = tested on: NCI-H1395
In short: as §1

NCI-H3122 = tested on: NCI-H3122
In short: as §1

201T = tested on: 201T
In short: as §1

CAL-12T = tested on: CAL-12T
In short: as §1

NCI-H1437 = tested on: NCI-H1437
In short: as §1

NCI-H2087 = tested on: NCI-H2087
In short: as §1

O=c1cc(N2CCOCC2)oc2c(-c3cccc4c3sc3ccccc34)cccc12 + CC(=O)c1c(C)c2cnc(Nc3ccc(N4CCNCC4)cn3)nc2n(C2CCCC2)c1=O [Palbociclib] (partner 0.5 µM)
relative viability (NCI-H1793; first compound 0.01 µM): 0.299 | relative viability (NCI-H1793; first compound 0.03162 µM): 0.295 | relative viability (NCI-H1793; first compound 0.1 µM): 0.314 | relative viability (NCI-H1793; first compound 0.3162 µM): 0.266 | relative viability (NCI-H1793; first compound 1 µM): 0.234 | relative viability (BEN; first compound 0.01 µM): 0.427 | relative viability (BEN; first compound 0.03162 µM): 0.476 | relative viability (BEN; first compound 0.1 µM): 0.476 | relative viability (BEN; first compound 0.3162 µM): 0.514 | relative viability (BEN; first compound 1 µM): 0.506 | relative viability (NCI-H1792; first compound 0.01 µM): 0.641 | relative viability (NCI-H1792; first compound 0.03162 µM): 0.577 | relative viability (NCI-H1792; first compound 0.1 µM): 0.658 | relative viability (NCI-H1792; first compound 0.3162 µM): 0.668 | relative viability (NCI-H1792; first compound 1 µM): 0.683 | relative viability (NCI-H727; first compound 0.01 µM): 0.66 | relative viability (NCI-H727; first compound 0.03162 µM): 0.6 | relative viability (NCI-H727; first compound 0.1 µM): 0.624 | relative viability (NCI-H727; first compound 0.3162 µM): 0.699 | relative viability (NCI-H727; first compound 1 µM): 0.737 | relative viability (HCC-827; first compound 0.01 µM): 0.52 | relative viability (HCC-827; first compound 0.03162 µM): 0.485 | relative viability (HCC-827; first compound 0.1 µM): 0.457 | relative viability (HCC-827; first compound 0.3162 µM): 0.53 | relative viability (HCC-827; first compound 1 µM): 0.47 | relative viability (LCLC-97TM1; first compound 0.01 µM): 0.218 | relative viability (LCLC-97TM1; first compound 0.03162 µM): 0.194 | relative viability (LCLC-97TM1; first compound 0.1 µM): 0.241 | relative viability (LCLC-97TM1; first compound 0.3162 µM): 0.21 | relative viability (LCLC-97TM1; first compound 1 µM): 0.218 | relative viability (NCI-H1650; first compound 0.01 µM): 0.299 | relative viability (NCI-H1650; first compound 0.03162 µM): 0.363 | relative viability (NCI-H1650; first compound 0.1 µM): 0.346 | relative viability (NCI-H1650; first compound 0.3162 µM): 0.368 | relative viability (NCI-H1650; first compound 1 µM): 0.317 | relative viability (NCI-H322M; first compound 0.01 µM): 0.484 | relative viability (NCI-H322M; first compound 0.03162 µM): 0.472 | relative viability (NCI-H322M; first compound 0.3162 µM): 0.462 | relative viability (NCI-H322M; first compound 1 µM): 0.45 | relative viability (RERF-LC-KJ; first compound 0.01 µM): 1.06 | relative viability (RERF-LC-KJ; first compound 0.03162 µM): 1.1 | relative viability (RERF-LC-KJ; first compound 0.1 µM): 1.04 | relative viability (RERF-LC-KJ; first compound 0.3162 µM): 1.09 | relative viability (RERF-LC-KJ; first compound 1 µM): 1.08 | relative viability (NCI-H2228; first compound 0.01 µM): 0.943 | relative viability (NCI-H2228; first compound 0.03162 µM): 0.749 | relative viability (NCI-H2228; first compound 0.1 µM): 0.802 | relative viability (NCI-H2228; first compound 0.3162 µM): 0.683 | relative viability (NCI-H2228; first compound 1 µM): 0.83 | relative viability (LCLC-103H; first compound 0.01 µM): 0.446 | relative viability (LCLC-103H; first compound 0.03162 µM): 0.439 | relative viability (LCLC-103H; first compound 0.1 µM): 0.513 | relative viability (LCLC-103H; first compound 0.3162 µM): 0.514 | relative viability (LCLC-103H; first compound 1 µM): 0.43 | relative viability (NCI-H2405; first compound 0.01 µM): 0.566 | relative viability (NCI-H2405; first compound 0.03162 µM): 0.542 | relative viability (NCI-H2405; first compound 0.1 µM): 0.531 | relative viability (NCI-H2405; first compound 0.3162 µM): 0.513 | relative viability (NCI-H2405; first compound 1 µM): 0.527 | relative viability (NCI-H1944; first compound 0.01 µM): 0.331 | relative viability (NCI-H1944; first compound 0.03162 µM): 0.332 | relative viability (NCI-H1944; first compound 0.1 µM): 0.363 | relative viability (NCI-H1944; first compound 0.3162 µM): 0.338 | relative viability (NCI-H1944; first compound 1 µM): 0.32 | relative viability (NCI-H647; first compound 0.01 µM): 0.392 | relative viability (NCI-H647; first compound 0.03162 µM): 0.409 | relative viability (NCI-H647; first compound 0.1 µM): 0.387 | relative viability (NCI-H647; first compound 0.3162 µM): 0.364 | relative viability (NCI-H647; first compound 1 µM): 0.314 | relative viability (LXF-289; first compound 0.01 µM): 0.631 | relative viability (LXF-289; first compound 0.03162 µM): 0.59 | relative viability (LXF-289; first compound 0.1 µM): 0.593 | relative viability (LXF-289; first compound 0.3162 µM): 0.583 | relative viability (LXF-289; first compound 1 µM): 0.595 | relative viability (SK-LU-1; first compound 0.01 µM): 0.473 | relative viability (SK-LU-1; first compound 0.03162 µM): 0.425 | relative viability (SK-LU-1; first compound 0.1 µM): 0.368 | relative viability (SK-LU-1; first compound 0.3162 µM): 0.391 | relative viability (SK-LU-1; first compound 1 µM): 0.347 | relative viability (NCI-H1395; first compound 0.03162 µM): 0.547 | relative viability (NCI-H1395; first compound 0.1 µM): 0.634 | relative viability (NCI-H1395; first compound 0.3162 µM): 0.631 | relative viability (NCI-H1395; first compound 1 µM): 0.637 | relative viability (NCI-H3122; first compound 0.01 µM): 0.171 | relative viability (NCI-H3122; first compound 0.03162 µM): 0.183 | relative viability (NCI-H3122; first compound 0.1 µM): 0.167 | relative viability (NCI-H3122; first compound 0.3162 µM): 0.177 | relative viability (NCI-H3122; first compound 1 µM): 0.161 | relative viability (201T; first compound 0.01 µM): 0.346 | relative viability (201T; first compound 0.03162 µM): 0.356 | relative viability (201T; first compound 0.1 µM): 0.356 | relative viability (201T; first compound 0.3162 µM): 0.342 | relative viability (201T; first compound 1 µM): 0.353 | relative viability (CAL-12T; first compound 0.01 µM): 0.444 | relative viability (CAL-12T; first compound 0.03162 µM): 0.401 | relative viability (CAL-12T; first compound 0.1 µM): 0.587 | relative viability (CAL-12T; first compound 0.3162 µM): 0.528 | relative viability (CAL-12T; first compound 1 µM): 0.436 | relative viability (NCI-H1437; first compound 0.01 µM): 0.3 | relative viability (NCI-H1437; first compound 0.03162 µM): 0.312 | relative viability (NCI-H1437; first compound 0.1 µM): 0.282 | relative viability (NCI-H1437; first compound 0.3162 µM): 0.31 | relative viability (NCI-H1437; first compound 1 µM): 0.281 | relative viability (NCI-H2087; first compound 0.01 µM): 0.218 | relative viability (NCI-H2087; first compound 0.03162 µM): 0.245 | relative viability (NCI-H2087; first compound 0.1 µM): 0.221 | relative viability (NCI-H2087; first compound 0.3162 µM): 0.229 | relative viability (NCI-H2087; first compound 1 µM): 0.217
